From US10759796B2, “CXCR4 inhibitors and uses thereof” (X4 Pharmaceuticals, Inc., priority 2016, dated 2020)
pIC50: −log10 of the molar value.

What was measured:
[1] = molecular target: CXCR-4 transfected U87 cell line (U87.CXCR4) (Homo sapiens (Human), UniProt P61073); assay: Intracellular CXCL-12-induced calcium mobilization assay (FLIPR); type: cell-based; conditions: U87.CXCR4 cells, CXCL-12 25-50 ng/mL; read-out: IC50 CXCL-12 Ca2+ flux U87.CXCR4+
How it was run: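 U87.CXCR4 cells were seeded at 20,000 per well, cultured 12 hours, then loaded with 4 μM Fluo-2 AM for 45 min at 37° C. in HBSS with 20 mM HEPES and 0.2% BSA, pH 7.4. Calcium flux triggered by CXCL-12 (25-50 ng/mL) was tracked over time by FLIPR fluorescence at 37° C.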

[2] = molecular target: Jurkat cells expressing CXCR4 (Homo sapiens (Human), UniProt P61073); assay: Chemokine (CXCL12-AF647) binding inhibition assay; conditions: CXCL12-AF647 25 ng/mL, read-out: IC50 CXCL-12 binding Jurkat
How it was run: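 Cells in HBSS, 20 mM HEPES, 0.2% BSA, pH 7.4, preincubated 15 min at room temperature with compound, then 25 ng/mL CXCL12-AF647 for 30 min. After washing and paraformaldehyde fixation, bound ligand read by flow cytometry; percent inhibition calculated from MFI relative to unlabeled and ligand-only controls.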

in vitro = conditions: human, Caco-2, pH 7.4
How it was run: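 Compounds at 10 μM in HBSS pH 7.4 (0.1–0.3% DMSO) were dosed on Caco-2 monolayers, apical-to-basolateral and basolateral-to-apical, for 90 min at 37 °C, in duplicate. Monolayer integrity was checked by TEER and lucifer yellow flux, read by fluorescence at 485/535 nm. Compound was quantified by LC-MS/MS and Papp calculated.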

CXCR-4 transfected U87 cell line (U87.CXCR4), sequence (P61073 whole entry): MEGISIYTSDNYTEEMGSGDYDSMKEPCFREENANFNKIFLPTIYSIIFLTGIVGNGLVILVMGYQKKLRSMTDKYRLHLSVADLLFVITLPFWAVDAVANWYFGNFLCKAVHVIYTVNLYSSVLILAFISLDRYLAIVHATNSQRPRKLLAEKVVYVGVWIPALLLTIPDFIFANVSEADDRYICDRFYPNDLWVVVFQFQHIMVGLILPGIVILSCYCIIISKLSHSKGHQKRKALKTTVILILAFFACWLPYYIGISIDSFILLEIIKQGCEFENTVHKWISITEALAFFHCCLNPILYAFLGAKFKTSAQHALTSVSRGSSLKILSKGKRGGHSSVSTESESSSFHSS
Jurkat cells expressing CXCR4, sequence (P61073 whole entry): as above

pIC50 [1] | pIC50 [2] | Papp A→B at 90 min, 10 μM (in vitro) [×10⁻⁶ cm/s] | Papp B→A at 90 min, 10 μM (in vitro) [×10⁻⁶ cm/s] | efflux ratio at 90 min, 10 μM (in vitro) | SMILES
7.00 to 11.00 | 7.00 to 11.00 | 0.1 to 10 | 0.1 to 10 | 0.1 to 10 | Cc1cccnc1[C@@H]1CCC[C@H](c2nc3cccc(N4CCN(C(C)C)CC4)n3c2Cl)N1C [Compound I-92]
6.00 to 7.00 | 7.00 to 11.00 | 10 to 30 | 0.1 to 10 | 0.1 to 10 | Cc1cccnc1[C@@H]1CCC[C@H](c2nc3cccc(N4CCN(C5CC5)CC4)n3c2Cl)N1C [Compound I-93]
≤ 6.00 | 6.00 to 7.00 | 0.1 to 10 | 10 to 30 | > 30 | CO[C@@H](c1c([C@H]2CCC[C@@H](c3ncccc3C)N2C)nc2ccccn12)C1CCN(C)CC1 [Compound I-105]
7.00 to 11.00 | 7.00 to 11.00 | 0.1 to 10 | 10 to 30 | 0.1 to 10 | Cc1cccnc1[C@@H]1CCC[C@H](c2cn3c(N4CCN(C)CC4)c(F)ccc3n2)N1C [Compound I-106]
≤ 6.00 | 6.00 to 7.00 | 0.1 to 10 | 0.1 to 10 | 0.1 to 10 | CCN1CCN(c2cccc3nc([C@H]4CCC[C@@H](c5ncccc5C(C)C)N4C)cn23)CC1 [Compound I-111]
6.00 to 7.00 | 7.00 to 11.00 | 0.1 to 10 | 0.1 to 10 | 0.1 to 10 | CCN1CCN(c2cccc3nc([C@H]4CCC[C@@H](c5ncccc5Cl)N4C)c(Cl)n23)CC1 [Compound I-125]
6.00 to 7.00 | 7.00 to 11.00 | 0.1 to 10 | 0.1 to 10 | 0.1 to 10 | CN(C)C1CCN(c2cccc3nc([C@H]4CCC[C@@H](c5ncccc5Cl)N4C)c(Cl)n23)CC1 [Compound I-132]
6.00 to 7.00 | 7.00 to 11.00 | 0.1 to 10 | > 30 | > 30 | CC[C@@H](O)c1c([C@H]2CCC[C@@H](c3ncccc3C)N2C)nc2cccc(N3CCN(C)CC3)n12 [Compound I-139]
6.00 to 7.00 | 7.00 to 11.00 | 0.1 to 10 | 10 to 30 | 0.1 to 10 | C/C=C/c1c([C@H]2CCC[C@@H](c3ncccc3C)N2C)nc2cccc(N3CCN(C)CC3)n12 [Compound I-141]
6.00 to 7.00 | 7.00 to 11.00 | 10 to 30 | 10 to 30 | 0.1 to 10 | CN1CCN(c2cccc3nc([C@H]4CCC[C@@H](c5ncccc5Cl)N4)c(Cl)n23)CC1 [Compound I-147]
≤ 6.00 | 7.00 to 11.00 | 0.1 to 10 | 10 to 30 | 0.1 to 10 | CC(C)N1CCN(c2cccc3nc([C@H]4CCC[C@@H](c5ncccc5Cl)N4C)cn23)CC1 [Compound I-150]

Second part, the molecule before the results:

SMILES | pIC50 [1] | pIC50 [2] | Papp A→B at 90 min, 10 μM (in vitro) [×10⁻⁶ cm/s] | Papp B→A at 90 min, 10 μM (in vitro) [×10⁻⁶ cm/s] | efflux ratio at 90 min, 10 μM (in vitro)
CO[C@H](c1c([C@H]2CCC[C@@H](c3ncccc3C)N2C)nc2ccccn12)C1CCN(C)CC1 [Compound I-104] | 6.00 to 7.00 | 7.00 to 11.00 | 0.1 to 10 | 10 to 30 | > 30
Cc1cccnc1[C@@H]1CCC[C@H](c2cn3c(N4CC5CCC(C4)N5)cccc3n2)N1C [Compound I-109] | 6.00 to 7.00 | 7.00 to 11.00 | 0.1 to 10 | 10 to 30 | > 30
Cc1cccnc1[C@@H]1CCC[C@H](c2cn3c(N4C5CCC4CNC5)cccc3n2)N1C [Compound I-110] | 7.00 to 11.00 | 7.00 to 11.00 | 0.1 to 10 | 10 to 30 | > 30
Cc1cccnc1[C@@H]1CCC[C@H](c2nc3cccc(N4CCN(C5CC5)CC4)n3c2CO)N1C [Compound I-112] | 6.00 to 7.00 | 7.00 to 11.00 | 10 to 30 | 10 to 30 | 0.1 to 10
Cc1cccnc1[C@@H]1CCC[C@H](c2nc3cccc(N4CCN5CCCC5C4)n3c2Cl)N1C (stereo partly drawn) [Compound I-113] | 7.00 to 11.00 | 7.00 to 11.00 | 0.1 to 10 | 0.1 to 10 | 0.1 to 10
CN1CCN(c2cccc3nc([C@H]4CCC[C@@H](c5ncccc5Cl)N4C)c(CO)n23)CC1 [Compound I-116] | 7.00 to 11.00 | 7.00 to 11.00 | 0.1 to 10 | 10 to 30 | 0.1 to 10
CC(C)N1CCN(c2cccc3nc([C@H]4CCC[C@@H](c5ncccc5Cl)N4C)c(Cl)n23)CC1 [Compound I-123] | ≤ 6.00 | 7.00 to 11.00 | 0.1 to 10 | 0.1 to 10 | 0.1 to 10
Cc1cccnc1[C@@H]1CCC[C@H](c2cn3c(N4CCN(C)CC4)cccc3n2)N1C(C)C [Compound I-126] | 7.00 to 11.00 | 7.00 to 11.00 | 0.1 to 10 | 10 to 30 | 10 to 30
Cc1cccnc1[C@@H]1CCC[C@H](c2nc3cccc(N4CCN(C)CC4)n3c2Cl)N1C(C)C [Compound I-127] | 7.00 to 11.00 | 7.00 to 11.00 | 0.1 to 10 | 0.1 to 10 | 0.1 to 10
CN1CC2CCC(C1)N2c1cccc2nc([C@H]3CCC[C@@H](c4ncccc4Cl)N3C)c(CO)n12 [Compound I-134] | 7.00 to 11.00 | 7.00 to 11.00 | 10 to 30 | 10 to 30 | 0.1 to 10
CN1C2CCC1CN(c1cccc3nc([C@H]4CCC[C@@H](c5ncccc5Cl)N4C)c(CO)n13)C2 [Compound I-135] | 7.00 to 11.00 | 7.00 to 11.00 | 0.1 to 10 | 10 to 30 | 0.1 to 10
CN(C)C1CCN(c2cccc3nc([C@H]4CCC[C@@H](c5ncccc5Cl)N4C)c(CO)n23)CC1 [Compound I-136] | 7.00 to 11.00 | 7.00 to 11.00 | 0.1 to 10 | 10 to 30 | 10 to 30
Cc1cccnc1[C@@H]1CCC[C@H](c2nc3cccc(N4CC5CCC(C4)N5C)n3c2Cl)N1C [Compound I-137] | 6.00 to 7.00 | 7.00 to 11.00 | 0.1 to 10 | 0.1 to 10 | 0.1 to 10
Cc1cccnc1[C@@H]1CCC[C@H](c2nc3cccc(N4C5CCC4CN(C)C5)n3c2Cl)N1C [Compound I-138] | 7.00 to 11.00 | 7.00 to 11.00 | 10 to 30 | 10 to 30 | 0.1 to 10
CN(C)C1CCN(c2cccc3nc([C@H]4CCC[C@@H](c5ncccc5Cl)N4C)cn23)CC1 [Compound I-142] | 7.00 to 11.00 | 7.00 to 11.00 | 0.1 to 10 | 10 to 30 | 0.1 to 10
CCN1CCN(c2cccc3nc([C@H]4CCC[C@@H](c5ncccc5Cl)N4C)cn23)CC1 [Compound I-151] | 6.00 to 7.00 | 7.00 to 11.00 | 10 to 30 | 10 to 30 | 0.1 to 10
